Key:
Influenza A virus [1] = assay: Antiviral activity against Influenza A virus A/WSN/33(H1N1) infected in HEK293T cells by Gaussia luciferase assay; assay type: functional, organism-based; conditions: HEK-293T
[2] = Cytotoxicity against dog MDCK cells by MTT assay; assay type: toxicity, cell-based, Canis lupus familiaris
Influenza A virus [3] = assay: Antiviral activity against Influenza A virus A/WSN/33(H1N1) infected in HEK293T cells assessed as inhibition of viral replication at 50 uM by Gaussia luciferase assay; assay type: functional; conditions: HEK-293T
[4] = Selectivity index, ratio of CC50 for cytotoxicity against dog MDCK cells to IC50 for antiviral activity against Influenza A virus A/WSN/33(H1N1) infected in HEK293T cells; assay type: toxicity, cell-based; conditions: read-out: Selectivity Index

## O=C1/C=C/CCc2ccc(O)c(c2)-c2cc(ccc2O)C[C@H]1O
Influenza A virus [1]
  IC50: 8.64 µM
[2]
  CC50 at 48 h: > 100 µM
Influenza A virus [3]
  inhibition at 50 µM: 60%
[4]
  selectivity ratio: > 12
